Earlier results as cited in US6887863B2, “Hydrazide and alkoxyamide angiogenesis inhibitors” (Abbott Laboratories, priority 2000, dated 2005).

Biological target: type 2-methionine aminopeptidase (MetAP2) (Homo sapiens, UniProt P50579)
Conditions: reported in Proc. Natl. Acad. Sci. USA 94: 6099-6103 (1997) and Chemistry and Biology 4(6): 461-471 (1997)

Chain of type 2-methionine aminopeptidase (MetAP2) (P50579 whole entry, species assumed): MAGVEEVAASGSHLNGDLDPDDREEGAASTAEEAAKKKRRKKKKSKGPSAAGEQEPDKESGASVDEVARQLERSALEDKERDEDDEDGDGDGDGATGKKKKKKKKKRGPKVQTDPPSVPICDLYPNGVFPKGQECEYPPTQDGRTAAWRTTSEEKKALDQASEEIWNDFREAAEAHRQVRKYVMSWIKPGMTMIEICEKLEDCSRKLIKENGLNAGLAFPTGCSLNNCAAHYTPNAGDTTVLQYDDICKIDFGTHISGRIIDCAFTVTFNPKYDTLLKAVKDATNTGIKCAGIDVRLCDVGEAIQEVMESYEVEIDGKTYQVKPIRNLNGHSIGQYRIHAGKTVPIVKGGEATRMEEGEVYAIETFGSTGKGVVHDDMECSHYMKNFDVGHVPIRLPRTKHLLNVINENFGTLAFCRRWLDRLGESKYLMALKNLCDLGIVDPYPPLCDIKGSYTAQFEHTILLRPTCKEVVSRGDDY

CO[C@@H]1[C@H](OC(=O)NC(=O)CCl)CC[C@]2(CO2)[C@H]1[C@@]1(C)O[C@@H]1CC=C(C)C [AGM-1470]
inactivation of MetAP2: covalently inactivate
